{"source": "patent US20260048047A1", "about": "“SMALL-MOLECULE ACTIVATORS OF MYCOBACTERIUM TUBERCULOSIS ADENYLYL CYCLASE” (priority 2022, published 2026)", "test_system": "M. tuberculosis", "assay": "Extracellular activity against M. tuberculosis in cholesterol media (Alamar Blue reduction assay)", "format": "cell-based, Mycobacterium tuberculosis", "conditions": "Mycobacterium tuberculosis, 240 h, 7H12-Cholesterol media, 10 days; read-out: Cholesterol broth: alamar blue--EC50"}
{"smiles": "Cc1nonc1CC(=O)N1CCC(c2nnc(-c3ccc(F)cc3)o2)CC1", "note": "[Compound 129, 1-(4-(5-(4-fluorophenyl)-1,3,4-oxadiazol-2-yl)piperidin-1-yl)-2-(4-methyl-1,2,5-oxadiazol-3-yl)ethan-1-one]", "values": [{"measurement": "EC50", "result": "> 10", "unit": "µM"}]}
{"smiles": "Cc1nonc1CC(=O)N1CCC(c2nc(C3CCCCC3)no2)CC1", "note": "[Compound 73, 1-(4-(3-cyclohexyl-1,2,4-oxadiazol-5-yl)piperidin-1-yl)-2-(4-methyl-1,2,5-oxadiazol-3-yl)ethan-1-one]", "values": [{"measurement": "EC50", "result": 0.674, "unit": "µM"}]}
{"smiles": "Cc1nonc1CC(=O)N1CCC(c2nc([C@@H]3CC[C@@H](F)C3)no2)CC1", "note": "[Compound 114, 1-(4-(3-((1R,3R)-3-fluorocyclopentyl)-1,2,4-oxadiazol-5-yl)piperidin-1-yl)-2-(4-methyl-1,2,5-oxadiazol-3-yl)ethan-1-one]", "values": [{"measurement": "EC50", "result": 7.04, "unit": "µM"}]}
{"smiles": "Cc1nonc1CC(=O)N1CCC(c2nc(-c3ccc(F)cn3)no2)CC1", "note": "[Compound 141, 1-(4-(3-(5-fluoropyridin-2-yl)-1,2,4-oxadiazol-5-yl)piperidin-1-yl)-2-(4-methyl-1,2,5-oxadiazol-3-yl)ethan-1-one]", "values": [{"measurement": "EC50", "result": "> 10", "unit": "µM"}]}
{"smiles": "Cc1noc(CC(=O)N2CCN(c3nc(-c4ccc(Cl)c(Cl)c4)no3)CC2)n1", "note": "[Compound 234, 1-(4-(3-(3,4-dichlorophenyl)-1,2,4-oxadiazol-5-yl)piperazin-1-yl)-2-(3-methyl-1,2,4-oxadiazol-5-yl)ethan-1-one]", "values": [{"measurement": "EC50", "result": "> 10", "unit": "µM"}]}
{"smiles": "Cc1nonc1CC(=O)N1CCC(n2nnc(-c3cccc(F)c3)n2)CC1", "note": "[Compound 145, 1-(4-(5-(3-fluorophenyl)-2H-tetrazol-2-yl)piperidin-1-yl)-2-(4-methyl-1,2,5-oxadiazol-3-yl)ethan-1-one]", "values": [{"measurement": "EC50", "result": 0.963, "unit": "µM"}]}
{"smiles": "Cn1ncnc1CC(=O)N1C[C@H]2C[C@@H](C1)[C@H]2c1nc(-c2ccc(Cl)c(Cl)c2)no1", "note": "[Compound 218, 1-((1R,5S,6s)-6-(3-(3,4-dichlorophenyl)-1,2,4-oxadiazol-5-yl)-3-azabicyclo[3.1.1]heptan-3-yl)-2-(1-methyl-1H-1,2,4-triazol-5-yl)ethan-1-one]", "values": [{"measurement": "EC50", "result": "> 10", "unit": "µM"}]}
{"smiles": "Cc1noc(CC(=O)N2CCC3(CC2)CC(c2nc(C4CCC(F)(F)CC4)no2)C3)n1", "note": "[Compound 227, 1-(2-(3-(4,4-difluorocyclohexyl)-1,2,4-oxadiazol-5-yl)-7-azaspiro[3.5]nonan-7-yl)-2-(3-methyl-1,2,4-oxadiazol-5-yl)ethan-1-one]", "values": [{"measurement": "EC50", "result": "> 10", "unit": "µM"}]}
{"smiles": "Cc1noc(CC(=O)N2CCC(n3nnc(C4CCCC4)n3)CC2)n1", "note": "[Compound 21, 1-(4-(5-cyclopentyl-2H-tetrazol-2-yl)piperidin-1-yl)-2-(3-methyl-1,2,4-oxadiazol-5-yl)ethan-1-one]", "values": [{"measurement": "EC50", "result": 7.35, "unit": "µM"}]}
{"smiles": "Cn1ncnc1CC(=O)N1CCC(c2nc(-c3ccc(Cl)c(F)c3)no2)CC1", "note": "[Compound 176, 1-(4-(3-(4-chloro-3-fluorophenyl)-1,2,4-oxadiazol-5-yl)piperidin-1-yl)-2-(1-methyl-1H-1,2,4-triazol-5-yl)ethan-1-one]", "values": [{"measurement": "EC50", "result": 0.115, "unit": "µM"}]}
{"smiles": "Cc1nonc1CC(=O)N1CCC(n2nnc(-c3ccccc3)n2)CC1", "note": "[Compound 80, 2-(4-methyl-1,2,5-oxadiazol-3-yl)-1-(4-(5-phenyl-2H-tetrazol-2-yl)piperidin-1-yl)ethan-1-one, reference compound]", "values": [{"measurement": "EC50", "result": 1.58, "unit": "µM"}]}
{"smiles": "Cc1nonc1CS(=O)(=O)N1CCC(c2nc(-c3ccc(F)cc3)no2)CC1", "note": "[Compound 151, 3-(4-fluorophenyl)-5-(1-(((4-methyl-1,2,5-oxadiazol-3-yl)methyl)sulfonyl)piperidin-4-yl)-1,2,4-oxadiazole]", "values": [{"measurement": "EC50", "result": "> 10", "unit": "µM"}]}
{"smiles": "Cc1nonc1CC(=O)N1CCC(c2nc(C34CCC(CC3)C4)no2)CC1", "note": "[Compound 78, 1-(4-(3-(bicyclo[2.2.1]heptan-1-yl)-1,2,4-oxadiazol-5-yl)piperidin-1-yl)-2-(4-methyl-1,2,5-oxadiazol-3-yl)ethan-1-one]", "values": [{"measurement": "EC50", "result": 3.76, "unit": "µM"}]}
{"smiles": "Cc1nonc1CC(=O)N1CCC(c2nc(C3(C)CCCCC3)no2)CC1", "note": "[Compound 84, 2-(4-methyl-1,2,5-oxadiazol-3-yl)-1-(4-(3-(1-methylcyclohexyl)-1,2,4-oxadiazol-5-yl)piperidin-1-yl)ethan-1-one]", "values": [{"measurement": "EC50", "result": 2.13, "unit": "µM"}]}
{"smiles": "Cc1nonc1NC(=O)C1CCC(c2nc(-c3ccc(F)cc3)no2)CC1", "note": "(stereo not shown) [Compound 251, 4-(3-(4-fluorophenyl)-1,2,4-oxadiazol-5-yl)-N-(4-methyl-1,2,5-oxadiazol-3-yl)cyclohexane-1-carboxamide]", "values": [{"measurement": "EC50", "result": "> 10", "unit": "µM"}]}
{"smiles": "Cc1nonc1CC(=O)N1CCC(n2cc(C(=O)NCCO)nn2)CC1", "note": "[Compound 150, N-(2-hydroxyethyl)-1-(1-(2-(4-methyl-1,2,5-oxadiazol-3-yl)acetyl)piperidin-4-yl)-1H-1,2,3-triazole-4-carboxamide]", "values": [{"measurement": "EC50", "result": "> 10", "unit": "µM"}]}
{"smiles": "Cc1nonc1CC(=O)N1CCN(c2nc(-c3ccc(F)cc3)no2)CC1", "note": "[Compound 236, 1-(4-(3-(4-fluorophenyl)-1,2,4-oxadiazol-5-yl)piperazin-1-yl)-2-(4-methyl-1,2,5-oxadiazol-3-yl)ethan-1-one]", "values": [{"measurement": "EC50", "result": 0.649, "unit": "µM"}]}
{"smiles": "Cc1nonc1CC(=O)N1CCC(n2nnc(-c3ccc(C(N)=O)cc3)n2)CC1", "note": "[Compound 149, 4-(2-(1-(2-(4-methyl-1,2,5-oxadiazol-3-yl)acetyl)piperidin-4-yl)-2H-tetrazol-5-yl)benzamide]", "values": [{"measurement": "EC50", "result": "> 10", "unit": "µM"}]}
{"smiles": "Cn1cnc(CC(=O)N2CCC(c3nc(-c4ccc(Cl)c(Cl)c4)no3)CC2)n1", "note": "[Compound 153, 1-(4-(3-(3,4-dichlorophenyl)-1,2,4-oxadiazol-5-yl)piperidin-1-yl)-2-(1-methyl-1H-1,2,4-triazol-3-yl)ethan-1-one]", "values": [{"measurement": "EC50", "result": "> 10", "unit": "µM"}]}
{"smiles": "Cc1nonc1CC(=O)N1CCCC(c2nc(-c3ccc(F)cc3)no2)C1", "note": "(stereo not shown) [Compound 256, 1-(3-(3-(4-fluorophenyl)-1,2,4-oxadiazol-5-yl)piperidin-1-yl)-2-(4-methyl-1,2,5-oxadiazol-3-yl)ethan-1-one]", "values": [{"measurement": "EC50", "result": "> 10", "unit": "µM"}]}
{"smiles": "Cc1nonc1CC(=O)N1CCC(c2noc(C3CC34CCC4)n2)CC1", "note": "(stereo not shown) [Compound 65, 2-(4-methyl-1,2,5-oxadiazol-3-yl)-1-(4-(5-(spiro[2.3]hexan-1-yl)-1,2,4-oxadiazol-3-yl)piperidin-1-yl)ethan-1-one]", "values": [{"measurement": "EC50", "result": 15, "unit": "µM"}]}
{"smiles": "Cc1noc(CC(=O)N2CC3CC(C2)C3c2nc(-c3ccc(F)c(F)c3)no2)n1", "note": "(stereo not shown) [Compound 208, 1-(6-(3-(3,4-difluorophenyl)-1,2,4-oxadiazol-5-yl)-3-azabicyclo[3.1.1]heptan-3-yl)-2-(3-methyl-1,2,4-oxadiazol-5-yl)ethan-1-one]", "values": [{"measurement": "EC50", "result": "≥ 10", "unit": "µM"}]}
{"smiles": "Cc1nonc1CC(=O)N1CCC(c2nc(C3CCC(F)CC3)no2)CC1", "note": "(stereo not shown) [Compound 115, 1-(4-(3-(4-fluorocyclohexyl)-1,2,4-oxadiazol-5-yl)piperidin-1-yl)-2-(4-methyl-1,2,5-oxadiazol-3-yl)ethan-1-one]", "values": [{"measurement": "EC50", "result": "> 25", "unit": "µM"}]}
{"smiles": "Cc1noc(CC(=O)N2CCC3(CC2)CC(c2nc(-c4ccc(F)c(F)c4)no2)C3)n1", "note": "[Compound 228, 1-(2-(3-(3,4-difluorophenyl)-1,2,4-oxadiazol-5-yl)-7-azaspiro[3.5]nonan-7-yl)-2-(3-methyl-1,2,4-oxadiazol-5-yl)ethan-1-one]", "values": [{"measurement": "EC50", "result": 0.294, "unit": "µM"}]}
{"smiles": "Cn1ncnc1CC(=O)N1CC2CC1CC2c1nc(-c2ccc(F)cc2)no1", "note": "(stereo not shown) [Compound 205, 1-(5-(3-(4-fluorophenyl)-1,2,4-oxadiazol-5-yl)-2-azabicyclo[2.2.1]heptan-2-yl)-2-(1-methyl-1H-1,2,4-triazol-5-yl)ethan-1-one]", "values": [{"measurement": "EC50", "result": 1.6, "unit": "µM"}]}
{"smiles": "Cc1nonc1CC(=O)N1CCC(c2nc(-c3ncc(F)cn3)no2)CC1", "note": "[Compound 148, 1-(4-(3-(5-fluoropyrimidin-2-yl)-1,2,4-oxadiazol-5-yl)piperidin-1-yl)-2-(4-methyl-1,2,5-oxadiazol-3-yl)ethan-1-one]", "values": [{"measurement": "EC50", "result": "> 10", "unit": "µM"}]}
{"smiles": "Cc1noc(CC(=O)N2CC3CC(C2)C3c2nc(C3CCC(F)(F)CC3)no2)n1", "note": "(stereo not shown) [Compound 207, 1-(6-(3-(4,4-difluorocyclohexyl)-1,2,4-oxadiazol-5-yl)-3-azabicyclo[3.1.1]heptan-3-yl)-2-(3-methyl-1,2,4-oxadiazol-5-yl)ethan-1-one]", "values": [{"measurement": "EC50", "result": "> 10", "unit": "µM"}]}
{"smiles": "Cc1nonc1CC(=O)N1CCC(c2ncc(-c3ccc(F)cc3)cn2)CC1", "note": "[Compound 253, 1-(4-(5-(4-fluorophenyl)pyrimidin-2-yl)piperidin-1-yl)-2-(4-methyl-1,2,5-oxadiazol-3-yl)ethan-1-one]", "values": [{"measurement": "EC50", "result": "> 10", "unit": "µM"}]}
{"smiles": "Cn1ncnc1CC(=O)N1C[C@H]2C[C@@H](C1)[C@H]2c1nc(-c2ccc(Cl)c(F)c2)no1", "note": "[Compound 222, 1-((1R,5S,6s)-6-(3-(4-chloro-3-fluorophenyl)-1,2,4-oxadiazol-5-yl)-3-azabicyclo[3.1.1]heptan-3-yl)-2-(1-methyl-1H-1,2,4-triazol-5-yl)ethan-1-one]", "values": [{"measurement": "EC50", "result": "> 10", "unit": "µM"}]}
{"smiles": "Cn1ncnc1CC(=O)N1CCC(c2nc(-c3ccc(CF)cc3)no2)CC1", "note": "[Compound 174, 1-(4-(3-(4-(fluoromethyl)phenyl)-1,2,4-oxadiazol-5-yl)piperidin-1-yl)-2-(1-methyl-1H-1,2,4-triazol-5-yl)ethan-1-one]", "values": [{"measurement": "EC50", "result": 2.26, "unit": "µM"}]}
{"smiles": "Cc1nonc1CC(=O)N1CCC(O)(c2nc(-c3ccc(Cl)c(Cl)c3)no2)CC1", "note": "[Compound 96, 1-(4-(3-(3,4-dichlorophenyl)-1,2,4-oxadiazol-5-yl)-4-hydroxypiperidin-1-yl)-2-(4-methyl-1,2,5-oxadiazol-3-yl)ethan-1-one]", "values": [{"measurement": "EC50", "result": 0.61, "unit": "µM"}]}
{"smiles": "Cn1ncnc1CC(=O)N1C[C@H]2C[C@@H](C1)[C@H]2c1nc(-c2ccc(Cl)cc2F)no1", "note": "[Compound 224, 1-((1R,5S,6s)-6-(3-(4-chloro-2-fluorophenyl)-1,2,4-oxadiazol-5-yl)-3-azabicyclo[3.1.1]heptan-3-yl)-2-(1-methyl-1H-1,2,4-triazol-5-yl)ethan-1-one]", "values": [{"measurement": "EC50", "result": "> 10", "unit": "µM"}]}
{"smiles": "Cc1noc(CC(=O)N2CC3CC2CC3c2nc(-c3ccc(F)cc3)no2)n1", "note": "(stereo not shown) [Compound 193, 1-(5-(3-(4-fluorophenyl)-1,2,4-oxadiazol-5-yl)-2-azabicyclo[2.2.1]heptan-2-yl)-2-(3-methyl-1,2,4-oxadiazol-5-yl)ethan-1-one]", "values": [{"measurement": "EC50", "result": "> 10", "unit": "µM"}]}
{"smiles": "Cc1nnnn1CC(=O)N1CCC(c2nc(-c3ccc(Cl)c(F)c3)no2)CC1", "note": "[Compound 17, 1-(4-(3-(4-chloro-3-fluorophenyl)-1,2,4-oxadiazol-5-yl)piperidin-1-yl)-2-(5-methyl-1H-tetrazol-1-yl)ethan-1-one]", "values": [{"measurement": "EC50", "result": 0.16, "unit": "µM"}]}
